Target: T1, μ opiate receptor (MOR) (Rattus norvegicus, UniProt P33535)
T1 construct: from tissue; host or cells: striatal tissue (membrane preparation)
Test: MOR agonist activity, [35S]GTPγS binding assay using striatal membranes
Format: biochemical
Details: for [35S]GTPγS binding to Gαo, FLNA-binding compound as agonist 0.1 μM: 0.1 μM compound; for [35S]GTPγS binding to Gαo, FLNA-binding compound as agonist 0.1 μM / [35S]GTPγS binding to Gαo, FLNA-binding compound as agonist 1 μM: striatal membranes; for [35S]GTPγS binding to Gαo, FLNA-binding compound as agonist 1 μM + BFNA: 1 μM compound + 1 μM β-funaltrexamine; for [35S]GTPγS binding to Gαo, FLNA-binding compound as agonist 1 μM: 1 μM compound; for % DAMGO + BFNA: relative to DAMGO + BFNA; for % DAMGO (0.1 μM) / % DAMGO (1 μM): relative to DAMGO
Experimental: To assess the μ opiate receptor (MOR) agonist activity of positive compounds from the FLNA screening, compounds were tested in a [^35S]GTPγS binding assay using striatal membranes.
Striatal tissue was homogenized in 10 volumes of ice cold 25 mM HEPES buffer, pH 7.4, which contained 1 mM EGTA, 100 mM sucrose, 50 μg/ml leupeptin, 0.04 mM PMSF, 2 μg/ml soybean trypsin inhibitor and 0.2% 2-mercaptoethanol. The homogenates were centrifuged at 800×g for 5 minutes and the supernatants were centrifuged at 49,000×g for 20 minutes. The resulting pellets were suspended in 10 volume of reaction buffer, which contained 25 mM HEPES, pH 7.5, 100 mM NaCl, 50 μg/ml leupeptin, 2 μg/ml soybean trypsin inhibitor, 0.04 mM PMSF and 0.02% […].
The resultant striatal membrane preparation (200 μg) was admixed and maintained (incubated) at 30° C. for 5 minutes in reaction buffer as above that additionally contained 1 mM MgCl2 and 0.5 nM [^35S]GTPγS (0.1 μCi/assay, PerkinElmer Life and Analytical Sciences) in a total volume of 250 μl and continued for 5 minutes in the absence or presence of 0.1-10 μM of an assayed compound of interest. The reaction was terminated by dilution with 750 μl of ice-cold reaction buffer that contained 20 mM MgCl2 and 1 mM EGTA and immediate centrifugation at 16,000×g for 5 minutes.
The resulting pellet was solubilized by sonicating for 10 seconds in 0.5 ml of immunoprecipitation buffer containing 0.5% digitonin, 0.2% sodium cholate and 0.5% NP-40. Normal rabbit serum (1 μl) was added to 1 ml of lysate and incubated at 25° C. for 30 minutes. Nonspecific immune complexes were removed by incubation with 25 μl of protein A/G-conjugated agarose beads at 25° C. for 30 minutes followed by centrifugation at 5,000×g at 4° C. for 5 minutes. The supernatant was divided and separately incubated at 25° C. for 30 minutes with antibodies raised against Gao proteins (1:1,000 dilutions).
The immunocomplexes so formed were collected by incubation at 25° C. for 30 minutes with 40 μl of agarose-conjugated protein A/G beads and centrifugation at 5,000×g at 4° C. for 5 minutes. The pellet was washed and suspended in buffer containing 50 mM Tris-HCl, pH 8.0, and 1% NP-40. The radioactivity in the suspension was determined by liquid scintillation spectrometry. […] DAMGO (H-Tyr-D-Ala-Gly-N-MePhe-Gly-OH; 1 or 10 μM) was used as a positive control.

T1 sequence (P33535 whole entry): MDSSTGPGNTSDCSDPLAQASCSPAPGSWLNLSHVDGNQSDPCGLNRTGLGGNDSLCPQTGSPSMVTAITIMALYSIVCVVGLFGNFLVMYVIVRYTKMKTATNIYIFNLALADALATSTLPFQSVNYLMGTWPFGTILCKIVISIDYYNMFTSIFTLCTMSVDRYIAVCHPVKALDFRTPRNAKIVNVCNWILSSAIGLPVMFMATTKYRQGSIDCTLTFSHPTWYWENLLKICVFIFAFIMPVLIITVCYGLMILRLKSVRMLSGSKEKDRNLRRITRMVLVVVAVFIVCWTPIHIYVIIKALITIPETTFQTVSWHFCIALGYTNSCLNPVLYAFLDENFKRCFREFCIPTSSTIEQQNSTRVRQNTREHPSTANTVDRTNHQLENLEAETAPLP

Structure (SMILES)	[35S]GTPγS binding to Gαo, FLNA-binding compound as agonist 0.1 μM [%]	[35S]GTPγS binding to Gαo, FLNA-binding compound as agonist 1 μM + BFNA [%]	[35S]GTPγS binding to Gαo, FLNA-binding compound as agonist 1 μM [%]	% DAMGO + BFNA [%]	% DAMGO (0.1 μM) [%]	% DAMGO (1 μM) [%]
CC1CCC(C(C)C)C(OCC(O)CN2CCN(CCN3CCCCC3)CC2)C1 (stereo not drawn) [Compound A0031]	178.2	150.9	297.0			
OC(COc1ccc(Br)c(F)c1)CN1CCCCC1 (stereo not drawn) [Compound A0058]	70.7	59.9	244.3			
CC1CCC(C(C)C)C(OCC(O)CN2CCOCC2)C1 (stereo not drawn) [Compound A0004]	97.4	86.0	144.2			
CC1CCC(C(C)C)C(OCC(O)CN(C(C)C)C(C)C)C1 (stereo not drawn) [Compound A0037]	177.9	104.6	236.2	141.5	90.7	85.6
CC1CCC(C(C)C)C(OCC(O)CN2CCN(CCCN3CCOCC3)CC2)C1 (stereo not drawn) [Compound A0026]	140.7	120.8	179.8			
CC1CCC(C(C)C)C(OCC(O)Cn2cccc2)C1 (stereo not drawn) [Compound A0038]	176.7	107.0	234.5			
COc1ccc(OCC(O)CN2CC(C)OC(C)C2)cc1 (stereo not drawn) [Compound A0048]	233.7	167.2	302.9			
CCN(CC)CC(O)COC1CC(C)CCC1C(C)C (stereo not drawn) [Compound A0032]	226.9	133.0	257.8			
CC1CCC(C(C)C)C(OCC(O)CN2CC(C)CC(C)C2)C1 (stereo not drawn) [Compound A0008]	163.8	133.9	235.0			
CC1CN(CC(O)COc2ccc(Cl)cc2)CC(C)O1 (stereo not drawn) [Compound A0047]	233.0	116.5	255.0			
CC1CCC(C)C(OCC(O)CN2CC(C)OC(C)C2)C1 (stereo not drawn) [Compound A0022]	154.1	28.0	216.0			
COc1ccc(OCC(O)Cn2ccc3ccccc32)cc1 (stereo not drawn) [Compound A0077]	300.1	103.5	334.7	470.5	170.5	132.3
Cc1cccc(OCC(O)CN2CC(C)OC(C)C2)c1 (stereo not drawn) [Compound A0030]	133.4	165.2	287.8			
CC1CCC(C(C)C)C(OCC(O)CN2CCSCC2)C1 (stereo not drawn) [Compound A0003]	176.8	17.1	276.0			
CC1CCC(C(C)C)C(OCC(O)CN2CCCc3ccccc32)C1 (stereo not drawn) [Compound A0068]	73.9	98.1	110.4			
CC1CCC(C(C)C)C(OCC(O)CN2CCSC2)C1 (stereo not drawn) [Compound A0002]	155.6	6.5	199.4			
OC(COc1cccc(F)c1)CN1CCc2ccccc2C1 (stereo not drawn) [Compound A0055]	89.8	33.5	195.2			
CC1CCC(C(C)C)C(OCC(O)CN2CCC(=O)C(C)C2)C1 (stereo not drawn) [Compound A0056]	115.6	17.4	129.6			
CC1CCC(C(C)C)C(OCC(O)CN2CCC2)C1 (stereo not drawn) [Compound A0015]	110.9	62.5	150.1			
OC(COc1ccc(Br)c(F)c1)CN1CCSCC1 (stereo not drawn) [Compound A0059]	99.2	85.7	129.9			
CN(C)c1cccc(OCC(O)CN2CCc3ccccc3C2)c1 (stereo not drawn) [Compound A0050]	151.0	81.0	189.3			
CC1CN(CC(O)COc2ccccc2)CC(C)O1 (stereo not drawn) [Compound A0025]	58.6	52.2	138.7			
OC(COc1cccc(C(F)(F)F)c1)CN1CCc2ccccc2C1 (stereo not drawn) [Compound A0054]	74.9	114.1	159.2			
CC1CCC(C(C)C)C(OCC(O)CN2CCC(=O)CC2)C1 (stereo not drawn) [Compound A0060]	99.7	14.3	158.2			
CC1CCN(CC(O)COC2CC(C)CCC2C(C)C)CC1 (stereo not drawn) [Compound A0006]	170.0	18.2	190.9			
CC1CCC(C(C)C)C(OCC(O)CN2CCCC2=O)C1 (stereo not drawn) [Compound A0035]	120.6	88.6	158.8			
CC1CCC(C(C)C)C(OCC(O)CN2CCCC2)C1 (stereo not drawn) [Compound A0001]	94.3	22.2	181.7			
CC1CN(CC(O)COc2ccc(Br)c(Cl)c2)CC(C)O1 (stereo not drawn) [Compound A0045]	143.9	99.2	274.2			
CC1CCC(C(C)C)C(OCC(O)CN2CCN(CCc3ccccc3)CC2)C1 (stereo not drawn) [Compound A0020]	168.6	67.4	217.4			
